Columns and labels:
[1] = Pharmacokinetic study in rat plasma after oral administration of Flos Chrysanthemi extract (UPLC-MS/MS); format: in vivo, Sprague-Dawley rats; conditions: rats, oral Flos Chrysanthemi extract 10 g/kg; for AUC(0-inf) / Cmax / Tmax / half-life / AUC / k el: male, Sprague-Dawley, rat; for AUC: read-out: AUC(0 − tn); for k el: read-out: Ke (converted); for Detection in plasma over the sampling time: result in words
Procedure: Six male Sprague-Dawley rats (250 ± 5 g) were purchased from Huafukang Bioscience Co., Inc. (Beijing, China). The rats were adapted to the facility for a week. Before the experiments, rats were fasted for 12 h, although drinking water was readily accessible. Flos Chrysanthemi extract was dissolved in CMC-Na aqueous solution and orally administered to the animals once at 10 g/kg. Blood samples (220 μL) were taken from the orbital venous plexus of rats at 0, 0.03, 0.08, 0.17, 0.25, 0.5, 1, 2, 4, 6, 8, 10, 12, and 24 h after extract administration. Blood samples were promptly centrifuged at 6000 rpm for 10 min, and plasma samples were collected. The obtained plasma was stored at -80°C until analysis. “Drug and Statistics 3.0” software (Medical College of Wannan, China) was used to calculate pharmacokinetic parameters. The animal protocol was approved by the Animal Ethics Committee of Tianjin University of Traditional Chinese Medicine (TCM-LAEC20190056).
Plasma samples from rats orally administered with Flos Chrysanthemi extract (10.0 g/kg) were analysed with UPLC-MS/MS. Plasma concentration-time curves are shown in Figure 3, and the primary pharmacokinetic parameters of each analyte are summarized in Table 6.

[2] = Stability of analytes in rat plasma (QC samples under four storage conditions); format: in vitro ADME; conditions: n = 6
Procedure: To study the stability of all compounds in rat plasma, low, medium, and high concentrations of QC samples were tested under the following test conditions: stored at an autosampler for 12 hours, stored at room temperature for 6 hours, put through three freeze/thaw cycles, and stored at -80°C for 14 days. Three QC concentrations were tested for each of the above conditions.
The stability of all 13 analytes during sample collection and processing was evaluated with the various storage conditions being tested on spiked plasma samples at three QC concentrations.

[3] = spiked concentration 1000 ng/mL
[4] = spiked concentration 4000 ng/mL

Row | AUC(0-inf) ([1]; plasma, n = 6) [µg·h/mL] | Cmax ([1]; plasma, n = 6) [µg/mL] | Tmax ([1]; plasma, n = 6) [min] | half-life ([1]; plasma, n = 6) [min] | AUC ([1]; plasma, n = 6) [µg·h/mL] | k el ([1]; plasma, n = 6) [s⁻¹] | Measured concentration, -80°C for 14 days ([2]; spiked concentration 5 ng/mL) [ng/mL] | Measured concentration, Autosampler for 12 h ([2]; spiked concentration 5 ng/mL) [ng/mL] | Measured concentration, Room temperature for 6 h ([2]; spiked concentration 5 ng/mL) [ng/mL] | Measured concentration, Three freeze-thaw cycles ([2]; spiked concentration 5 ng/mL) [ng/mL] | Measured concentration, -80°C for 14 days ([2]; spiked concentration 50 ng/mL) [ng/mL] | Measured concentration, Autosampler for 12 h ([2]; spiked concentration 50 ng/mL) [ng/mL] | Measured concentration, Room temperature for 6 h ([2]; spiked concentration 50 ng/mL) [ng/mL] | Measured concentration, Three freeze-thaw cycles ([2]; spiked concentration 50 ng/mL) [ng/mL] | Measured concentration, -80°C for 14 days [2, 3] [ng/mL] | Measured concentration, Autosampler for 12 h [2, 3] [ng/mL] | Measured concentration, Room temperature for 6 h [2, 3] [ng/mL] | Measured concentration, Three freeze-thaw cycles [2, 3] [ng/mL] | Measured concentration, -80°C for 14 days ([2]; spiked concentration 200 ng/mL) [ng/mL] | SMILES | Detection in plasma over the sampling time [1] | further results
1 | 3.09 ± 0.447 | 0.302 ± 0.0871 | 30 | 667 ± 426 | 2.9 ± 0.251 | 2.5e-05 | 5.2 ± 0.1 | 5.4 ± 0.2 | 4.9 ± 0.1 | 5.7 ± 0.1 | 49.3 ± 1.9 | 45.8 ± 1.3 | 49.3 ± 1.1 | 50.5 ± 0.4 | 1063.8 ± 62.8 | 987.0 ± 11.4 | 1112.4 ± 11.7 | 1086.4 ± 17.6 | – | O=c1cc(-c2ccc(O)cc2)oc2cc(O)cc(O)c12 [Apigenin] | – | –
2 | – | – | – | – | – | – | – | – | – | – | – | – | – | – | – | – | – | – | 188.6 ± 0.9 | COc1ccc(-c2cc(=O)c3c(O)cc(O[C@@H]4O[C@H](CO)[C@@H](O)[C@H](O)[C@H]4O)cc3o2)cc1 [Tilianin] | detected only at the first few blood sampling points | Measured concentration, -80°C for 14 days ([2]; spiked concentration 1 ng/mL): 0.9 ± 0.1 ng/mL; Measured concentration, Autosampler for 12 h ([2]; spiked concentration 1 ng/mL): 0.9 ± 0.1 ng/mL; Measured concentration, Room temperature for 6 h ([2]; spiked concentration 1 ng/mL): 1.1 ± 0.1 ng/mL; Measured concentration, Three freeze-thaw cycles ([2]; spiked concentration 1 ng/mL): 1.0 ± 0.1 ng/mL; Measured concentration, -80°C for 14 days ([2]; spiked concentration 10 ng/mL): 10.2 ± 0.2 ng/mL; Measured concentration, Autosampler for 12 h ([2]; spiked concentration 10 ng/mL): 9.3 ± 0.1 ng/mL; Measured concentration, Room temperature for 6 h ([2]; spiked concentration 10 ng/mL): 9.9 ± 0.3 ng/mL; Measured concentration, Three freeze-thaw cycles ([2]; spiked concentration 10 ng/mL): 11.3 ± 0.2 ng/mL; Measured concentration, Autosampler for 12 h ([2]; spiked concentration 200 ng/mL): 179.0 ± 1.2 ng/mL; Measured concentration, Room temperature for 6 h ([2]; spiked concentration 200 ng/mL): 226.4 ± 0.2 ng/mL; Measured concentration, Three freeze-thaw cycles ([2]; spiked concentration 200 ng/mL): 209.6 ± 0.3 ng/mL
3 | – | – | – | – | – | – | 4.5 ± 0.1 | 5.3 ± 0.1 | 4.6 ± 0.1 | 5.8 ± 0.1 | 50.5 ± 0.7 | 47.8 ± 0.7 | 50.3 ± 0.8 | 50.2 ± 5.7 | 977.4 ± 57.9 | 1030.3 ± 4.9 | 1126.2 ± 9.5 | 1032.7 ± 5.6 | – | COc1ccc(-c2cc(=O)c3c(O)cc(O)cc3o2)cc1 [Acacetin] | detected only at the first few blood sampling points | –
4 | 0.431 ± 0.197 | 0.0894 ± 0.0453 | 36.6 ± 19.8 | 414 ± 204 | 0.319 ± 0.0973 | 3.33e-05 | 5.2 ± 0.2 | 5.0 ± 0.2 | 5.3 ± 0.1 | 5.9 ± 0.1 | 46.7 ± 1.4 | 44.5 ± 1.3 | 49.1 ± 1.5 | 54.1 ± 0.3 | 1075.7 ± 52.9 | 1069.3 ± 16.2 | 1012.9 ± 11.1 | 1122.8 ± 6.8 | – | O=C(/C=C/c1ccc(O)c(O)c1)O[C@H]1[C@H](O)C[C@](O)(C(=O)O)C[C@H]1O [Cryptochlorogenic acid] | – | –
5 | 19.1 ± 20 | 2.55 ± 1.12 | 383 ± 228 | 301 ± 266 | 19.1 ± 19.9 | 7.78e-05 | – | – | – | – | – | – | – | – | – | – | – | – | 205.0 ± 4.0 | O=c1cc(-c2ccc(O)c(O)c2)oc2cc(O[C@@H]3O[C@H](CO)[C@@H](O)[C@H](O)[C@H]3O)cc(O)c12 [Cynaroside] | – | Measured concentration, -80°C for 14 days ([2]; spiked concentration 20 ng/mL): 21.1 ± 0.8 ng/mL; Measured concentration, Autosampler for 12 h ([2]; spiked concentration 20 ng/mL): 20.0 ± 0.2 ng/mL; Measured concentration, Room temperature for 6 h ([2]; spiked concentration 20 ng/mL): 20.6 ± 0.9 ng/mL; Measured concentration, Three freeze-thaw cycles ([2]; spiked concentration 20 ng/mL): 22.6 ± 1.0 ng/mL; Measured concentration, Autosampler for 12 h ([2]; spiked concentration 200 ng/mL): 203.4 ± 6.1 ng/mL; Measured concentration, Room temperature for 6 h ([2]; spiked concentration 200 ng/mL): 182.4 ± 0.6 ng/mL; Measured concentration, Three freeze-thaw cycles ([2]; spiked concentration 200 ng/mL): 219.8 ± 1.0 ng/mL; Measured concentration, -80°C for 14 days [2, 4]: 4060.3 ± 121.9 ng/mL; Measured concentration, Autosampler for 12 h [2, 4]: 4158.6 ± 15.3 ng/mL; Measured concentration, Room temperature for 6 h [2, 4]: 4360.1 ± 32.4 ng/mL; Measured concentration, Three freeze-thaw cycles [2, 4]: 4152.9 ± 34.1 ng/mL
6 | 0.494 ± 0.205 | 0.194 ± 0.0564 | – | 12 ± 10.2 | 0.426 ± 0.139 | 0.00112 | 5.2 ± 0.1 | 5.1 ± 0.1 | 5.8 ± 0.1 | 5.8 ± 0.1 | 44.4 ± 0.3 | 43.5 ± 0.7 | 49.7 ± 2.3 | 54.7 ± 0.4 | 1117.1 ± 2.0 | 1084.8 ± 13.6 | 1079.2 ± 8.3 | 1123.5 ± 7.3 | – | O=C(/C=C/c1ccc(O)c(O)c1)O[C@@H]1C[C@](O)(C(=O)O)C[C@@H](O)[C@H]1O [Chlorogenic acid] | – | T max ([1]; plasma, n = 6): 15 ± 0 min
7 | 0.405 ± 0.228 | 0.101 ± 0.0733 | 24 ± 18.6 | 14.4 ± 13.2 | 0.309 ± 0.149 | 0.0013 | 5.6 ± 0.1 | 4.6 ± 0.4 | 5.2 ± 0.2 | 5.9 ± 0.1 | 43.3 ± 0.3 | 45.1 ± 0.6 | 48.1 ± 0.8 | 55.3 ± 0.4 | 1080.3 ± 37.8 | 1047.3 ± 12.4 | 1049.2 ± 32.0 | 1052.4 ± 38.4 | – | O=C(/C=C/c1ccc(O)c(O)c1)O[C@@H]1[C@H](O)C[C@@](O)(C(=O)O)C[C@H]1OC(=O)/C=C/c1ccc(O)c(O)c1 [Isochlorogenic acid C] | – | –
8 | – | – | – | – | – | – | – | – | – | – | – | – | – | – | – | – | – | – | 209.5 ± 2.3 | COc1ccc([C@@H]2CC(=O)c3c(O)cc(O[C@@H]4O[C@H](CO[C@@H]5O[C@@H](C)[C@H](O)[C@@H](O)[C@H]5O)[C@@H](O)[C@H](O)[C@H]4O)cc3O2)cc1O [Hesperidin] | detected only at the first few blood sampling points | Measured concentration, -80°C for 14 days ([2]; spiked concentration 1 ng/mL): 1.1 ± 0.1 ng/mL; Measured concentration, Autosampler for 12 h ([2]; spiked concentration 1 ng/mL): 1.0 ± 0.1 ng/mL; Measured concentration, Room temperature for 6 h ([2]; spiked concentration 1 ng/mL): 1.1 ± 0.1 ng/mL; Measured concentration, Three freeze-thaw cycles ([2]; spiked concentration 1 ng/mL): 1.1 ± 0.1 ng/mL; Measured concentration, -80°C for 14 days ([2]; spiked concentration 10 ng/mL): 9.5 ± 0.2 ng/mL; Measured concentration, Autosampler for 12 h ([2]; spiked concentration 10 ng/mL): 8.8 ± 0.1 ng/mL; Measured concentration, Room temperature for 6 h ([2]; spiked concentration 10 ng/mL): 10.2 ± 0.4 ng/mL; Measured concentration, Three freeze-thaw cycles ([2]; spiked concentration 10 ng/mL): 10.0 ± 0.1 ng/mL; Measured concentration, Autosampler for 12 h ([2]; spiked concentration 200 ng/mL): 222.7 ± 2.0 ng/mL; Measured concentration, Room temperature for 6 h ([2]; spiked concentration 200 ng/mL): 213.7 ± 2.1 ng/mL; Measured concentration, Three freeze-thaw cycles ([2]; spiked concentration 200 ng/mL): 218.3 ± 0.7 ng/mL
9 | – | – | – | – | – | – | 4.8 ± 0.2 | 3.9 ± 0.1 | 4.4 ± 0.1 | 5.7 ± 0.1 | 50.3 ± 1.8 | 41.8 ± 1.4 | 48.7 ± 1.9 | 54.5 ± 2.1 | 997.8 ± 19.4 | 803.4 ± 2.5 | – | 1110.2 ± 4.5 | – | O=c1c(O[C@@H]2O[C@H](CO)[C@H](O)[C@H](O)[C@H]2O)c(-c2ccc(O)c(O)c2)oc2cc(O)cc(O)c12 [Hyperoside] | detected only at the first few blood sampling points | –

From article PMC7456477, “Pharmacokinetic Study of Thirteen Ingredients after the Oral Administration of Flos Chrysanthemi Extract in Rats by UPLC-MS/MS” (BioMed Research International, 2020)
